According to US7202276B2, “Use of 13-HODE as a regulator of vascular biocompatibility and an inhibitor of cell hyperplasia” (1411198 Ontario Limited, priority 2000, dated 2007):
Like-named read-outs stand apart in the source and are kept apart here. One block for each compound: values may come before it.

Columns and labels:
[1] = test system: Sarcoma 180 tumors; conditions: given orally; cited from earlier work
[2] = Vessel wall (VW) 13-HODE levels in rabbits treated orally with 13-HODE; type: in vivo, New Zealand white rabbits; conditions: suspended in ethyl-EPA, all treatment levels
Experimental: (§1) New Zealand white rabbits (half males/half females; 2.5–2.9 kg) were used throughout. Rabbits were treated with 100, 400 or 1000 μg/kg/day of purified 13-HODE suspended in corn oil or ethyl-eicosapentaenoic acid (EPA), or with an equivolume of either suspending vehicle (total volume 1 ml) for 7 days. Serial blood samples were collected before, during and after treatment to assess the levels of 13-HODE in plasma. On day 7, the treatments were stopped. At that time, the rabbits were anaesthetised with a combination of Atravet, Ketamine, Vetrepham and glycopyrolate, given subcutaneously. Both carotid arteries of anaesthetised rabbits were isolated between 2 temporary ligatures, first by applying the proximal ligature, then allowing the blood to drain from the segment, and then applying the distal ligature. A 24-gauge angiocath attached to tubing filled with sterile saline and connected to a pressure manometer, was inserted into the isolated segment. Then the segment was filled with the saline to a pressure of 600 mm Hg which was maintained for 5 minutes. The pressure was relieved, and the angiocath and ligatures were removed, thereby allowing for blood flow restoration. Cessation of bleeding from the needle puncture site was achieved within 3 minutes without any manual manipulation. The incisions were sutured closed with 000 proline. […]

[3] = Cell free plasma 13-HODE levels in rabbits treated orally with 13-HODE; type: in vivo, New Zealand white rabbits
Experimental: New Zealand white rabbits (half males/half females; 2.5–2.9 kg) were used throughout. Rabbits were treated with 100, 400 or 1000 μg/kg/day of purified 13-HODE suspended in corn oil or ethyl-eicosapentaenoic acid (EPA), or with an equivolume of either suspending vehicle (total volume 1 ml) for 7 days. Serial blood samples were collected before, during and after treatment to assess the levels of 13-HODE in plasma. On day 7, the treatments were stopped. At that time, the rabbits were anaesthetised with a combination of Atravet, Ketamine, Vetrepham and glycopyrolate, given subcutaneously. Both carotid arteries of anaesthetised rabbits were isolated between 2 temporary ligatures, first by applying the proximal ligature, then allowing the blood to drain from the segment, and then applying the distal ligature. A 24-gauge angiocath attached to tubing filled with sterile saline and connected to a pressure manometer, was inserted into the isolated segment. Then the segment was filled with the saline to a pressure of 600 mm Hg which was maintained for 5 minutes. The pressure was relieved, and the angiocath and ligatures were removed, thereby allowing for blood flow restoration. Cessation of bleeding from the needle puncture site was achieved within 3 minutes without any manual manipulation. The incisions were sutured closed with 000 proline. The rabbits were injected intramuscularly with Temgesic to minimize any pain and with 12.5 mg Baytril as an antibiotic, and then allowed to recover. This injury procedure results in endothelial denudation and the exposure of a thrombogenic surface within 1 hour of restoration of blood flow, followed by SMC proliferation and intimal hyperplasia, which plateaus at □ 4 weeks and which is sustained for ≧12 weeks (Buchanan M R, Brister S J: 1998: Buchanan M R et al. 1999).
Two, four or twelve weeks later, the rabbits were re-anaesthetised and their injured carotid arteries were again isolated. Segments of injured and uninjured carotid artery were harvested and processed histologically to assess VW hyperplasia. Other VW segments and blood samples were collected and processed for VW and plasma 13-HODE levels.

[4] = test system: VW intimal hyperplasia of injured carotid arteries; test: Intimal hyperplasia after carotid artery pressure injury in rabbits; type: in vivo, New Zealand white rabbits; conditions: 7 day course of 100 μg/kg/day, in either corn oil or ethyl-EPA, p<0.001
Experimental: as §1

[5] = Stability of 13-HODE dosage forms; type: physicochemical; conditions: dissolved into a triglyceride oil carrier or an ester
Experimental: A real problem is presented by the fact that active daily doses of 13-HODE are in the 50 to 1,000 μg/kg/day range. […] That translates into a 7 mg/day dose for a 70 kg person. Since doses for humans are often considerably lower than doses for animals because of a weight/body surface area scaling, a daily dose of as little as 5 mg or less is really possible. Formulating an oily liquid is such small doses is a problem. It could be absorbed into tabletting materials and tabletted and coated, or micro-encapsulated by methods well known to those skilled in the art. […] Other triglyceride oils such as vegetable oil, including sunflower, safflower, soy, evening primrose, borage, coconut or palm oil, or cottonseed, rapeseed, olive, fish body or fish liver oils may all be used for this purpose. Particularly useful esters for this purpose are esters of fatty acids with 16–26 carbon atoms and one or more double bonds in the chain.

[6] = stroke, myocardial infarction, transient ischemic attacks; cited from earlier work
[7] = test system: platelet/injured VW interactions; conditions: dose comparable to that used clinically; cited from earlier work
[8] = test system: intimal SMC hyperplasia; conditions: 1 mg/kg/day for 7 days before VW injury, 4 weeks after VW injury; cited from earlier work
[9] = 3.2 gm daily (20 capsules) for 30 days; cited from earlier work
[10] = test system: platelet/injured VW interactions; conditions: 3.2 gm daily for 30 days; cited from earlier work

SMILES: CCCCC/C=C\C=C\C(O)CCCCCCCC(=O)O (stereo not shown) [9-HODE, 9-hydroxy-10(E)-12(Z) octadecadienoic acid]
minimum effective dose for inhibiting the rate of tumour growth [1]: 55 mg/kg/day

time to significantly elevated cell-free plasma 13-HODE level ([3]; 1,000 μg/kg/day oral): ≤ 3 days
time cell-free plasma 13-HODE level remained elevated ([3]; 1,000 μg/kg/day oral, treatment stopped after 7 days): 4 weeks
effect on plasma 13-HODE levels of increasing the dose ([3]; 1,000 μg/kg/day vs 100 μg/kg/day, corn oil): no further effect
increase in the plasma 13-HODE levels ([3]; after 7 days of oral 100 μg/kg/day, suspended in corn oil): three-fold increase
half life ([3]; orally administered): long half life
oral absorption ([3]; orally administered): well absorbed
absolute levels of plasma 13-HODE, compared with corn oil ([3]; suspended in ethyl-EPA, all treatment levels): lower in all treatment levels tested
stability of the dosage form [5]: stable without degradation
SMILES: CCCCCC(O)/C=C/C=C\CCCCCCCC(=O)O (stereo not shown) [13-HODE, 13-hydroxyoctadeca-9Z, 11E-dienoic acid]
absolute levels of VW 13-HODE, compared with corn oil [2]: somewhat lower at all treatment levels tested
intimal VW hyperplasia [4]: significantly inhibited

SMILES: CC(=O)Oc1ccccc1C(=O)O [ASA]
overall risk reduction [6]: ~25%

SMILES: OCCN(CCO)c1nc(N2CCCCC2)c2nc(N(CCO)CCO)nc(N3CCCCC3)c2n1 [Persantine]
decrease in platelet/injured VW interactions [7]: > 2 fold
SMC hyperplasia [8]: inhibited

SMILES: CCCCC/C=C\C/C=C\CCCCCCCC(=O)O [linoleic acid, Octa-deca-9Z, 12Z-dienoic acid]
increase in VW 13-HODE levels [9]: 2 fold
decrease in platelet/injured VW interactions [10]: > 2 fold
